Values after ≈ are worked out from the molar mass of the structure shown. Like-named read-outs stand apart in the source and are kept apart here. Some results are limits rather than exact numbers.

Here are results for six molecules from PMC12221116, “Novel Quinazolinones Active against Multidrug‐Resistant Mycobacterium Tuberculosis: Synthesis, Antimicrobial Evaluation, and in Silico Exploration of Penicillin‐Binding Protein 1A as a Potential Target” (Chemmedchem, 2025).

The subject of one test is Mtb H37Rv. The test is described as follows: Microplate Alamar Blue assay, MIC. The format is cell-based, Mycobacterium tuberculosis. To be noted: Mycobacterium tuberculosis, H37RV.
The next test relates to Mtb H37Ra. The test is described as follows: Microdilution broth resazurin assay, MIC. The format is cell-based, Mycobacterium tuberculosis.
Another test concerns M. kansasii. As to the kind of experiment: Microplate Alamar Blue assay, MIC. The class given is cell-based, Mycobacterium kansasii. To be noted: for MIC: Mycobacterium kansasii, read-out: Antimycobacterial Activity MIC M. kans.
For the next test, the system named is M. avium. As to the kind of experiment: Microdilution broth resazurin assay, MIC. The format is cell-based, Mycobacterium avium.
In the next test the test system is M. smegmatis. As to the kind of experiment: Microdilution broth resazurin assay, MIC. The format is cell-based, Mycolicibacterium smegmatis.
The next test deals with M. aurum. The test is described as follows: Microdilution broth resazurin assay, MIC. The format is cell-based, Mycolicibacterium aurum.
In the next test the test system is HepG2. As to the kind of experiment: cells. To be noted: Homo sapiens.
Another test concerns MRC-5. The test is described as follows: cells. As to conditions: Homo sapiens.
[1] abbreviates: Microplate Alamar Blue assay, read-out: Antimycobacterial Activity MIC Mtb H37Rv.
[2] abbreviates: read-out: Antimycobacterial Activity MIC Mtb H37Rv, Table S5 matching pairs series A and B.
Where [3] appears, read: Mycobacterium tuberculosis, H37RA, read-out: Antimycobacterial Activity MIC Mtb H37Ra.
Setting [4] is: Mycobacterium avium; read-out: Antimycobacterial Activity MIC M. avium.
The mark [5] stands for this setting: Table S5 matching pairs series A and B.
Where [6] appears, read: Mycolicibacterium smegmatis; read-out: Antimycobacterial Activity MIC M. smeg.
Setting [7] is: Mycolicibacterium aurum; read-out: Antimycobacterial Activity MIC M. aurum.
The mark [8] stands for this setting: HepG2, 24 h, read-out: IC50 for HepG2 [24 h].
[9] abbreviates: HepG2, 72 h, read-out: IC50 for HepG2 [72 h].
The mark [10] stands for this setting: MRC5, 24 h, read-out: IC50 for MRC-5 [24 h].
Setting [11] is: MRC5, 72 h, read-out: IC50 for MRC-5 [72 h].
[12] abbreviates: Mycobacterium avium, read-out: Antimycobacterial Activity MIC M. avium.
[13] abbreviates: Mycolicibacterium smegmatis, read-out: Antimycobacterial Activity MIC M. smeg.
[14] abbreviates: Mycolicibacterium aurum, read-out: Antimycobacterial Activity MIC M. aurum.
The mark [15] stands for this setting: Mycobacterium tuberculosis, H37RA; read-out: Antimycobacterial Activity MIC Mtb H37Ra.

As for `Cc1nc2cc(Cl)ccc2c(=O)n1Cc1cccc(Cl)c1` [Compound 21], the MIC was 25 µg/mL (≈ 78.3 µM) in the test with Mtb H37Rv (setting [1]); 25 µg/mL (≈ 78.3 µM) in the test with Mtb H37Rv (setting [2]); 15.6 µg/mL (≈ 49 µM) in the test with Mtb H37Ra (setting [3]); over 100 µg/mL in the test on M. kansasii; at least 250 µg/mL in the test on M. avium (setting [4]); at least 250 µg/mL with M. smegmatis (setting [6]). Further, the MIC in the test on M. aurum (setting [7]) was at least 250 µg/mL. In addition, in the test with Mtb H37Ra, the “Antimycobacterial Activity MIC Mtb H37Ra” value turned out to be 15.625 µg/mL. In addition, the “Antimycobacterial Activity MIC M. avium” value in the test on M. avium (setting [5]) was at least 250 µg/mL. Also, the “Antimycobacterial Activity MIC M. smeg.” value in the test on M. smegmatis (setting [5]) was at least 250 µg/mL. Moreover, the “Antimycobacterial Activity MIC M. aurum” value in the test with M. aurum (setting [5]) was at least 250 µg/mL. The IC50 in the test with HepG2 (setting [8]), in the test with HepG2 (setting [9]), in the test on MRC-5 (setting [10]) and in the test with MRC-5 (setting [11]) was over 50 µM in each case.
With `Cc1nc2cc(Cl)ccc2c(=O)n1Cc1ccc(Cl)c(Cl)c1` [Compound 24], the MIC was 50 µg/mL (≈ 141 µM) in the test on Mtb H37Rv (setting [1]); over 100 µg/mL with Mtb H37Rv (setting [2]); 15.6 µg/mL (≈ 44.2 µM) with Mtb H37Ra (setting [3]); 25 µg/mL (≈ 70.7 µM) in the test with M. kansasii; at least 125 µg/mL with M. avium (setting [12]); at least 125 µg/mL in the test on M. smegmatis (setting [13]). In addition, the MIC in the test with M. aurum (setting [14]) is at least 125 µg/mL. The “Antimycobacterial Activity MIC Mtb H37Ra” value in the test with Mtb H37Ra worked out at 15.625 µg/mL. The “Antimycobacterial Activity MIC M. kans.” value in the test on M. kansasii (setting [5]) is reported as 25 µg/mL. Moreover, the “Antimycobacterial Activity MIC M. avium” value in the test on M. avium is at least 125 µg/mL. For the same molecule, the “Antimycobacterial Activity MIC M. smeg.” value in the test with M. smegmatis is at least 125 µg/mL. Moreover, the “Antimycobacterial Activity MIC M. aurum” value in the test on M. aurum is at least 125 µg/mL. In addition, the IC50 in the test with HepG2 (setting [8]), in the test on HepG2 (setting [9]), in the test with MRC-5 (setting [10]) and in the test with MRC-5 (setting [11]) was over 50 µM in each case.
For the molecule `Cc1nc2cc(Cl)ccc2c(=O)n1/N=C/c1ccc(Cl)cc1` [Compound 51], the MIC in the test on Mtb H37Rv (setting [1]) was over 25 µg/mL; in the test with Mtb H37Ra (setting [15]) it was at least 15.6 µg/mL; with M. kansasii it was over 25 µg/mL; in the test on M. avium (setting [12]), at least 15.6 µg/mL; with M. smegmatis (setting [13]) it was at least 15.6 µg/mL; in the test on M. aurum (setting [14]), at least 15.6 µg/mL.
Consider `Cc1nc2cc(Cl)ccc2c(=O)n1/N=C/c1ccccc1Br` [Compound 52], for which the MIC in the test on Mtb H37Rv (setting [1]) was over 25 µg/mL; with Mtb H37Ra (setting [15]), at least 31.2 µg/mL; in the test on M. kansasii, over 25 µg/mL; with M. avium (setting [12]), at least 31.2 µg/mL; in the test on M. smegmatis (setting [13]), at least 31.2 µg/mL; with M. aurum (setting [14]), at least 31.2 µg/mL.
Regarding `Cc1nc2cc(Cl)ccc2c(=O)n1/N=C/c1cccc(Br)c1` [Compound 53, (E)-7-Chloro-3-((3-bromobenzylidene)amino)-2-methylquinazolin-4(3H)-one], the MIC is over 25 µg/mL in the test with Mtb H37Rv (setting [1]); at least 31.2 µg/mL in the test on Mtb H37Ra (setting [15]); over 25 µg/mL in the test with M. kansasii; at least 31.2 µg/mL in the test on M. avium (setting [12]); at least 31.2 µg/mL in the test with M. smegmatis (setting [13]); at least 31.2 µg/mL with M. aurum (setting [14]).
Consider `NNC(=O)c1ccncc1` [INH, isoniazid, reference compound], for which the MIC in the test with Mtb H37Rv (setting [1]) was 0.2 µg/mL (≈ 1.46 µM); in the test with Mtb H37Ra (Mycobacterium tuberculosis, H37RA; internal quality controls (standards); read-out: MINIMUM INHIBITORY CONCENTRATION Mycobacterium tuberculosis H37Ra) it was 0.125 to 0.25 µg/mL (≈ 0.911 to 1.82 µM); in the test with Mtb H37Ra (setting [15]), 0.25 µg/mL (≈ 1.82 µM); in the test with M. kansasii, 25 µg/mL (≈ 182 µM); in the test on M. avium (Mycobacterium avium, DSM44156; internal quality controls (standards); read-out: MINIMUM INHIBITORY CONCENTRATION Mycobacterium avium DSM 44156), 500 to 1000 µg/mL (≈ 3650 to 7290 µM); in the test with M. avium (setting [4]), 1000 µg/mL (≈ 7290 µM). In addition, the MIC with M. smegmatis (Mycolicibacterium smegmatis, DSM43465; internal quality controls (standards); read-out: MINIMUM INHIBITORY CONCENTRATION Mycolicibacterium smegmatis DSM 43465) was 15.6 to 31.2 µg/mL (≈ 114 to 228 µM); in the test on M. smegmatis (setting [6]), 15.6 µg/mL (≈ 114 µM); in the test with M. aurum (Mycolicibacterium aurum, DSM43999; internal quality controls (standards); read-out: MINIMUM INHIBITORY CONCENTRATION Mycolicibacterium aurum DSM 43999), 1.95 to 3.91 µg/mL (≈ 14.2 to 28.5 µM); in the test with M. aurum (setting [7]), 3.91 µg/mL (≈ 28.5 µM).
